Measurements published in patent publication US11054425B2, “System and method for identification and characterization of transglutaminase species” (Roche Sequencing Solutions, Inc., priority 2014, dated 2021).
No end group written: not given here. *: point of attachment. Cbz = O=C(OCc1ccccc1)*

Legend:
[1] = test system: S. mobaraensis MTG; experiment: GLDH-coupled assay in solution (NADH oxidation); assay type: biochemical, Streptomyces mobaraensis; conditions: enzyme MTG; glutamine-donor 0 to 1 mM, cadaverine 1 mM, 37° C.
Experimental: (§1) For the GLDH coupled assay, to determine whether the KalbTG peptides selected in the array assay were also preferred substrates in a solution reaction and to quantify cross-reactivity of KalbTG and S. mobaraensis MTG with various substrates, a continuous glutamate dehydrogenase (GLDH)-coupled assay for S. mobaraensis MTG activity (see Oteng-Pabi, et al., 2013. Analytical biochemistry 441(2): 169-173) was applied.
(§2) For glutamine substrate evaluation, the assay was performed in a transparent 96-well microtiter plate in the presence of 500 μM α-ketoglutarate, 500 μM or 1 mM cadaverine as Amine donor substituting for a lysine-containing peptide, 2 U ml^−1 of glutamate dehydrogenase (GLDH), 500 μM NADH and glutamine-containing substrate peptide (Z-[[…] (SEQ ID NO:77)], Z-[[…] (SEQ ID NO:78)], Z-[[…] (SEQ ID NO:75)], Z-[[…] (SEQ ID NO:79)], Z-[[…] (SEQ ID NO:80)], Z-[[…] (SEQ ID NO:81)], Z-[[…] (SEQ ID NO:82)], Z-[[…] (SEQ ID NO:83)], Z-[[…] (SEQ ID NO:84)], Z-[[…] (SEQ ID NO:85)], Z-[[…] (SEQ ID NO:86)], Z-[[…] (SEQ ID NO:76)] or Z-[[…] (SEQ ID NO:87)]) concentrations ranging between 0 and 1 mM in 200 mM MOPS, 1 mM EDTA pH 7.2 (total volume per well 200 μl).
(§3) Reactions were started by the addition of 5 μg ml^−1 of S. mobaraensis MTG or KalbTG and the oxidation of NADH was continuously recorded at 340 nm for 60 minutes using a Biotek Synergy H4 microplate reader, temperature controlled at 37° C., with short shaking intervals before each measurement. After a short lag phase where the GLDH was saturated by transglutaminase-mediated release of ammonia, linear rates of absorbance versus time corresponding to transglutaminase turnover were observed and subjected to Michaelis-Menten kinetic analysis. Rates of absorbance in millioptical density units per minute (mOD min^−1) were converted into molar rates of NADH turnover (pmol s^−1) using the formula of Equation 1 (previously determined by an NADH standard curve): Turnover rate=|Absorbance rate|*1.111 (Eq. 1)

[2] = test system: KalbTG; experiment: 5-mer peptide array, glutamine-substrate screening with biotinylated amine donor; assay type: biochemical, Kutzneria albida; conditions: incorporation of biotinylated amine-donor on 5-mer peptide array
KalbTG, sequence (as listed by the source): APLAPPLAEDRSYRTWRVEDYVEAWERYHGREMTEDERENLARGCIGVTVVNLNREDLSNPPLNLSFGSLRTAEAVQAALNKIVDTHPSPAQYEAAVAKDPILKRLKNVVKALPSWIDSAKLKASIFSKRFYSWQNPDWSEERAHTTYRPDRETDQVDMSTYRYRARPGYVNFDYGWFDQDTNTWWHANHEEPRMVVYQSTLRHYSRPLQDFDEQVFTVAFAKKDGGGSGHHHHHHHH
Experimental: To identify potential acyl-donor and amine-donor substrates of the K. albida transglutaminase, high-throughput screening on 5-mer peptide arrays was performed (FIGS. 4A and 4B). An activity of at least 1.65 U/mg for both the SlyD-fused and the mature KalbTG enzymes was confirmed by commercial assay (Zedira MTG-ANiTA-KIT; compared to 4.3 U mg^−1 by the MTG supplied with the kit and a 0.07 U/mg blank value with BSA). The assay used β-casein as a cross-linking substrate and detected deamidation by a glutamate dehydrogenase dependent oxidation of NADPH. Specific recognition motifs were identified by assaying KalbTG with peptide arrays prepared by maskless array synthesis (U.S. Pat. Pub. No 2015/0185216 to Albert et al. filed on 19 Dec. 2014). The efficiency of the transamidation reaction between 1.4 million unique 5-mer peptides and a biotinylated amine donor was quantified on two arrays in parallel and the sequences of the peptides with the highest turnovers were determined (FIG. 4A). The nine best peptides were resynthesized and tested for KalbTG activity in a standalone GLDH-coupled assay. Note that the array signal for the sequence MLAQG (SEQ ID NO:13) is marked not applicable (n. a.) as this sequence was not included on the array. Similarly, measurement of a background signal was only applicable to experiments performed on the array.
For construction of the peptide array, a library of 1,360,732 unique 5-mer peptides was designed by using all combinations of 18 natural amino acids excluding cysteine and methionine, as well as any dimer or a longer repeat of the same amino acid, and any peptide containing a dipeptide selected from HR, RH, HK, KH, RK, KR, HP, and PQ sequences. The library was synthesized in duplicate on the same array by using maskless light-directed peptide array synthesis. Each 5-mer peptide was flanked on both the N-terminus and C-terminus by 3 amino acid-long linkers synthesized by using mixture of glycine and serine having a 3:1 ratio.
To test KalbTG specificity for glutamine-containing substrate, N-(biotinyl)cadaverine was used as a substitute for a lysine substrate to biotinylate glutamine-peptides on a peptide array. KalbTG labeling reaction was performed in 1200 μL 100 mM Tris-HCl pH 8, 1 mM DTT, 50 μM N-(biotinyl)cadaverine, 0.2 ng μl^−1 KalbTG in SecureSeal™ chamber (Grace Bio-Labs) at 37° C. for 45 minutes. After incubation the chamber was removed and the array was washed in 20 mM Tris-HCl, pH7.8, 0.2 M NaCl, 1% SDS for 1 minute followed by a 1 minute wash in 20 mM Tris-HCl. Biotin linked to the array was stained with 0.3 μg ml^−1 Cy5-streptavidin in 10 mM Tris-HCl, pH7.4, 1% alkali-soluble casein, 0.05% TWEEN-20 non-ionic detergent at room temperature for 1 hour. Cy5 fluorescence intensity was measured with a fluorescence scanner at a resolution of 2 μm and a wavelength of 635 nm.

[3] = test system: KalbTG; experiment: GLDH-coupled assay in solution (NADH oxidation); assay type: biochemical, Kutzneria albida
Experimental: KalbTG activity was obtained by measuring incorporation of a biotinylated amine-donor on the peptide array and rates of NADH oxidation at 340 nm and 37° C. in the presence of amine-donor substrate (500 μM) in the GLDH-coupled assay using 100 μM each of nine of the best-performing array-selected glutamine-containing substrates and of two S. mobaraensis MTG glutamine-containing substrates. […] Testing of the top sequences in Table 1 confirmed YRYRQ (SEQ ID NO: 1) and RYRQR (SEQ ID NO 14) as the top performing 5-mer substrates, with turnover rates of 3.52±0.08 pmol NADH s^−1 and 3.60±0.12 pmol NADH s^−1, respectively.
With reference to Table 2, KalbTG activity was obtained by measuring incorporation of a biotinylated glutamine-donor and rates of NADH oxidation at 340 nm and 37° C. in the presence of glutamine-donor substrate (200 μM) in the GLDH-coupled assay using 100 μM each of i) six of the top-performing array-selected lysine substrates, ii) cadaverine, and iii) preferred MTG lysine substrate ARSKL (SEQ ID NO:30). […] This is a small but significant increase over cadaverine (3.51±0.12 pmol s^−1) or ARSKL (SEQ ID NO:30) (3.87±0.31 pmol s^−1), a peptide previously established as a preferred MTG lysine donor motif on the peptide array. Additional details on the S. mobaraensis MTG substrate peptide ARSKL (SEQ ID NO:30) can be found in U.S. Provisional Patent Application Ser. No. 62/094,495 to Albert et al. filed on Dec. 19, 2014.
as §1, §2
For amine substrate evaluation, assay conditions were the same as for glutamine substrate evaluation with the exception that 100 μM each of amine substrate (Z-[[…] (SEQ ID NO:88)], Z-[[…] (SEQ ID NO:89)], Z-[[…] (SEQ ID NO:90)], Z-[[…] (SEQ ID NO:91)], Z-[[…] (SEQ ID NO:92)], Z-[[…] (SEQ ID NO:93)], Z-[[…] (SEQ ID NO:94)], Z-[[…] (SEQ ID NO:95)] or cadaverine) and 200 μM glutamine donor (Z-[[…] (SEQ ID NO:75)] or Z-[[…] (SEQ ID NO:76)]) were used.
as §3, with “Rates of absorbance in millioptical density units per minute (mOD min^−1) were converted into molar rates of NADH turnover (pmol s^−1) using the formula of Equation 1 (previously determined by an NADH standard curve): Turnover rate=|Absorbance rate|*1.111 (Eq. 1)” left out

[4] = test system: KalbTG; experiment: Cy3 labeling of Q-tagged SlyD/FKBP scaffold, SDS-PAGE; assay type: biochemical, Kutzneria albida; conditions: ten-fold excess KalbTG K-tag-Cy3, substrate to enzyme ratio 72:1, after 15 minutes
Source text: Next, the array and in-solution data were applied to perform site-specific labeling on protein substrates. The molecular chaperone SlyD is a useful scaffold for labeling approaches as epitope-containing loops can be grafted onto the FKBP domain for presentation to binders or enzymes (PCT App. Pub. No. WO 2012/150321 A1 to Andres et al.). A chimeric protein consisting of the Thermus thermophilus FKBP domain and the KalbTG recognition sequence RYRQR (SEQ ID NO:14) was produced. Labeling with a ten-fold excess of KalbTG K-tag-Cy3 and a substrate to enzyme ratio of 72:1 afforded approximately 70% yield of a labeled protein species after 15 minutes (FIG. 6A). This yield remained constant over a time-course of 60 minutes. […] The molecular weight shift from 13 kDa to 19 kDa was observed on the SDS-PAGE gel, corresponding exactly to the incorporation of a single 6 kDa label molecule. […]
If not noted otherwise, labeling reactions were performed for 15 minutes at 37° C. in the presence of 72 μM substrate protein, 720 μM label peptide and 1 μM transglutaminase in 200 mM MOPS pH 7.2 and 1 mM EDTA. […] Samples were taken between incubation steps and analyzed by SDS-PAGE, in-gel fluorescence (BioRad ChemiDoc gel documentation system, Cy3 and Cy5 LED and filter sets). […] The mixture was filtered (0.2 μm spin filter) and analyzed by LC-MS with UV detection at 214 nm and 305 nm.

[5] = enzyme KalbTG, glutamine-donor 0 to 1 mM, cadaverine 1 mM, 37° C.

Row | Molecule | Km [1] [µM] | Vmax [1] [pmol/s] | kcat [1] [S^−1] | Array signal (log2) [2] [log2] | reactivity of KalbTG towards substrate ([3]; kinetics, varying substrate concentrations) | Reaction rate in solution ([3]; 100 μM glutamine-containing substrate, 500 μM amine-donor substrate, NADH oxidation at 340 nm, 37° C.) [pmol/s] | Km ([3]; enzyme KalbTG) [µM] | Km [3, 5] [µM] | Vmax [3, 5] [pmol/s] | kcat [3, 5] [S^−1] | yield of labeled protein species / incorporation of label [4]
1 | DYALQ (Cbz-DYALQ) [preferred S. mobaraensis MTG glutamine-containing substrate, reference compound] | 847 ± 138 | 36.66 ± 3.33 | 1.39 | 7.22 | completely unreactive | – | – | – | – | – | –
2 | YRYRQ (Cbz-YRYRQ) [KalbTG glutamine-donor (Q-tag) 5-mer] | 644 ± 58.4 | 21.50 ± 1.00 | 0.93 | 8.99 | – | 3.52 ± 0.08 | 2000 | 2150 ± 291 | 73.18 ± 7.27 | 1.92 | –
3 | FKBP domain RYRQR: chimeric protein of Thermus thermophilus FKBP domain and KalbTG recognition sequence RYRQR (protein, synthetic peptide sequence - KalbTG acyl-donor sequence grafted onto the FKBP domain of SlyD; FKBP_domain; acyl-donor_tag; 8xHis_tag) MKVGQDKVVTIRYTLQVEGEVLDQGELSYLHGHRNLIPGLEEALEGREEGEAFQAHVPAEKAYGAGSGGGGRYRQRGGGGGSSGKDLDFQVEVVKVREATPEELLHGHAHHHHHHHH | – | – | – | – | – | – | – | – | – | – | approximately 70%
